Experimental data: patent publication US20240262878A1, “PHOTOACTIVATABLE GASDERMIN PROTEINS” (THE BOARD OF TRUSTEES OF THE UNIVERSITY OF ILLINOIS, priority 2021, published 2024)
Entries after “also recorded” stand apart in the source; their conditions may differ.

T1: GSDMD pores (Homo sapiens, UniProt P57764)
T1 construct: His-SUMO (N, cleaved yes); made in house; host or cells: E. coli BL21
T1 sequence (P57764 1-275 limits assumed): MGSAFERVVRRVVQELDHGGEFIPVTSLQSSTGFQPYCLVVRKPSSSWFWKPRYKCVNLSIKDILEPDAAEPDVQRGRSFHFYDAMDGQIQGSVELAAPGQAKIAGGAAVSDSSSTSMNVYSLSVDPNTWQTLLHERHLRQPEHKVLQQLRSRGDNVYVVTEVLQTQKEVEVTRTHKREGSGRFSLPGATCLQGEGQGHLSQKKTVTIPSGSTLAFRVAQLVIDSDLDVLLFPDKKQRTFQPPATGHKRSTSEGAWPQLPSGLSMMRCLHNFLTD

B1: m1: PhoDer mutant K51Q/R53Q/K55Q (SEQ ID NO:34) (protein)
chain: MGSAFERVVRRVVQELDHGGEFIPVTSLQSSTGFQPYCLVVRKPSSSWFWQPQYQCVNLSIKDILEPDAAEPDVQRGRSFHFYDAMDGQIQGSVELAAPGQAKIAGGAAVSDSSSTSMNVYSLSVDPNTWQTLLHERHLRQPEHKVLQQLRSRGDNVYVVTEVLQTQKEVEVTRTHKREGSGRFSLPGATCLQGEGQGHLSQKKTVTIPSGSTLAFRVAQLVIDSDLDVLLFPDKKQRTFQPPATGHKRSTSEGAWPQLPSGLSMMRCLHNGGGSVIPDYFKQSFPEGYSWERSMTYEDGGICIATNDITMEGDSFINKIHFKGTNFPPNGPVMQKRTVGWEASTEKMYERDGVLKGDVKMKLLLKGGGHYRCDYRTTYKVKQKPVKLPDYHFVDHRIEILSHDKDYNKVKLYEHAVARNSTDSMDELYKGGSGGMVSKGEETITSVIKPDMKNKLRMEGNVNGHAFVIEGEGSGKPFEGIQTIDLEVKEGAPLPFAYDILTTAFHYGNRVFTKYPRGGGVPAEGAFTEDFQGLRAEVETISKELELLDRELCQLLLEGLEGVLRDQLALRALEEALEQGQSLGPVEPLDGPAGAVLECLVLSSGMLVPELAIPVVYLLGALTMLSETQHKLLAEALESQTLLGPLELVGSLLEQSAPWQERSTMSLPPGLLGNSWGEGAPAWVLLDECGLELGEDTPHVCWEPQAQGRMCALYASLALLSGLSQEPH
B2: m2: PhoDer mutant K51E/R53E/K55E (SEQ ID NO:35) (protein)
chain: MGSAFERVVRRVVQELDHGGEFIPVTSLQSSTGFQPYCLVVRKPSSSWFWEPEYECVNLSIKDILEPDAAEPDVQRGRSFHFYDAMDGQIQGSVELAAPGQAKIAGGAAVSDSSSTSMNVYSLSVDPNTWQTLLHERHLRQPEHKVLQQLRSRGDNVYVVTEVLQTQKEVEVTRTHKREGSGRFSLPGATCLQGEGQGHLSQKKTVTIPSGSTLAFRVAQLVIDSDLDVLLFPDKKQRTFQPPATGHKRSTSEGAWPQLPSGLSMMRCLHNGGGSVIPDYFKQSFPEGYSWERSMTYEDGGICIATNDITMEGDSFINKIHFKGTNFPPNGPVMQKRTVGWEASTEKMYERDGVLKGDVKMKLLLKGGGHYRCDYRTTYKVKQKPVKLPDYHFVDHRIEILSHDKDYNKVKLYEHAVARNSTDSMDELYKGGSGGMVSKGEETITSVIKPDMKNKLRMEGNVNGHAFVIEGEGSGKPFEGIQTIDLEVKEGAPLPFAYDILTTAFHYGNRVFTKYPRGGGVPAEGAFTEDFQGLRAEVETISKELELLDRELCQLLLEGLEGVLRDQLALRALEEALEQGQSLGPVEPLDGPAGAVLECLVLSSGMLVPELAIPVVYLLGALTMLSETQHKLLAEALESQTLLGPLELVGSLLEQSAPWQERSTMSLPPGLLGNSWGEGAPAWVLLDECGLELGEDTPHVCWEPQAQGRMCALYASLALLSGLSQEPH

Columns and labels:
[1] = target: T1, GSDMD pores; experiment: Free-standing planar lipid bilayer electrophysiology of reconstituted GSDMD pores; assay type: biochemical; conditions: for single pore activity / pore dynamics profile: lipid in POPE/POPC bilayer; for time to observe GSDMD protein-membrane interaction, in words: lipid in bilayer compared to baseline or PIP2 bilayer
Experimental: Protein Purification. Plasmid encoding the full length human GSDMD with a N-terminal His-SUMO tag was transformed into E. coli BL21 strain. The cultures were grown at 37° C. until OD600 0.8, and protein expression was induced with 0.2 mM isopropyl β-D-1-thiogalactopyranoside (IPTG) overnight at 20° C. The cells were harvested by centrifugation and the pellet was resuspended in 20 mM Tris buffer, pH 7.5, 50 mM NaCl, 5 mM imidazole, 20 mM MgCl2, 10 mM KCl, 0.5 mM TCEP, 0.1 mM protease inhibitor, and DNase I. After resuspension, cells were disrupted by high-pressure and centrifuged at 30,000 g at 4° C. for 1 hour. The supernatant was incubated for 2 hours at room temperature with pre-equilibrated Ni-NTA affinity resin (Thermo Scientific) and then passed through a column for gravity flow purification. The column was washed with 20 column volumes of resuspension buffer, and the fusion protein was eluted with three column volumes of the same buffer with 250 mM imidazole. SUMO-tag cleavage was achieved by addition of ULP1 protease to the solution and subsequent dialysis overnight at 4° C. against 20 mM Tris buffer, pH 7.5, 50 mM NaCl, 0.5 mM TCEP. GSDMD was eluted from a second round of purification through pre-equilibrated Ni-NTA affinity resin. The protein was further purified by HI-TRAP® Q ion-exchange resin and a SUPERDEX® 75 gel filtration column (GE Healthcare) pre-equilibrated with 20 mM Tris buffer, pH 7.5, 50 mM NaCl, 0.5 mM TCEP. The purified protein was concentrated to 20 mg/ml and frozen at −80° C.
Free-Standing Lipid Bilayer Formation and Electrophysiology. For the lipid bilayer, a bilayer chamber with a polystyrene cuvette was used. In addition, the folding method, which is based on Langmuir-Blodgett film formation (Kroemer et al. (2009) Cell Death Differ. 16:3-11; Weavers et al. (2016) Cell 165:1658-1671) was employed. Monolayers that were spread in the air-water interface were faced at the chamber hole (Bergsbaken & Fink (2009) Nat. Rev. Microbiol. 7:99-109; Mulvihill et al. (2018) EMBO J. 37 (14): e98321). In brief, a shallow trough made of polystyrene was filled with recording solution, and the surface was separated into two parts by one of the cuvette walls. Bilayers were formed by monolayers of 1:3 1-palmitoyl-2-oleoylphosphatidylethanolamine (POPE)/1-palmitoyl-2-oleoylphosphatidylcholine (POPC) (Avanti-lipids) in pentane; where appropriate, phosphoinositides of the indicated headgroup were introduced with di-oleoyl (18:1) fatty acid chains at 10% relative concentration. A small amount of phospholipid, dispersed in pentane solution, was dropped on one of the water surfaces and as pentane evaporated, the lipid molecules remained at the air-water interface. The movements of the lipid molecules became less vigorous, and eventually the lipid molecules packed together to form a monolayer. For the formation of the planar lipid bilayer by the folding method, a monolayer was formed at the air-water interface in each compartment. Upon raising the recording solution level by adding more solution, the monolayer ran up on the cuvette surface and passed through the hole, where the two monolayers from both sides encountered each other and formed a bilayer. The membrane formed by this method has been referred to as a “solvent-free” membrane. The advantage of this method over other methods, like the painting method, is the capacity to form an asymmetrical membrane in which the lipid composition of either leaflet is arbitrarily defined (Kayagaki et al. (2015) Nature 526: 666-671). Once formed, the membrane retains this asymmetry for a long time because the flip-flop or exchange of the lipid molecules between both leaflets of the membrane is very slow.
For incorporation of the GSDMD into the lipid bilayer, 2 μM of the purified GSDMD protein was added to the cis side chamber along with 2 μM of caspase 1. The specific membrane capacitance of the membrane formed by the folding method was 0.6-0.8 μF/cm^2. […]

[2] = system: Hela cells; experiment: Optogenetic activation of PhoDer, membrane-targeted jRCaMP1b calcium flare imaging and fluctuation analysis; assay type: cell-based; conditions: PhoDer mutants in live Hela cells vs PhoDer
Experimental: Cloning. Cloning and subcloning were performed using the DH5a strain of E. coli. All mammalian constructs were cloned into the pcDNA3.0 vector with a modified multiple cloning site. Plasmids were generated as follows. Gasdermin D gene was obtained from Addgene. A diffusible optogenetic GSDMD, referred to herein as “PhoDer” and set forth in SEQ ID NO: 33, was constructed according to the reported domains structure by ligating three fragments into the pcDNA3.0 vector in one reaction via Gibson Assembly (New England BioLabs). For each fragment, PCR was specifically designed to create appropriate complementation. The jRCaMP1b gene, encoding a sensitive red protein calcium indicator, was obtained from Addgene. Membrane targeted calcium indicator jRCaMP1b was constructed by ligating a PCR fragment of the calcium indicator into the restriction enzyme sites BamHI and EcoRI in a modified pcDNA3.0 vector carrying a 5′ fragment encoding the N-terminal Lyn kinase localization sequence.
Cell Culture. HeLa and RAW264.7 cells were maintained in Dulbecco's Modified Eagle Medium (DMEM) medium supplemented with 10% fetal bovine serum (FBS) and 1% penicillin and streptomycin. Cells were transfected at 50%-70% confluency using LIPOFECTAMINE® 2000 transfection reagent and incubated for 24 hours before imaging. Cells were never serum-starved. To examine endogenous inflammatory activation, RAW264.7 cells were treated with 100 ng/μL lipopolysaccharide (LPS, Invivogen) at the beginning of each experiment. Pretreatment to bias membrane composition by phosphatidylinositol 4,5-bisphosphate (PIP2) modifying enzymes was performed by incubating Hela cells in Hanks' Balanced Salt Solution (HBSS) buffer with inhibitors at 37° C. for 10 minutes to prior imaging at the following concentrations: for phosphoinositide 3-kinase (PI3K), cells were treated 10 μM wortmannin (Tocris); and for phospholipase C (PLC), cells were treated with 10 μM U73122 (Tocris). Cells were removed from the incubator and allowed to come to thermal equilibrium before being imaged in HBSS buffer at room temperature.
Fluorescence Imaging, Optogenetic Activation, and Post-Processing. All epifluorescence imaging was performed on a customized Nikon Ti2-E microscope equipped with individual control over excitation (EX) and emission (EM) filters, a fast LED light source (Lumencor) with fluid-cooled EMCCD (Andor), motorized stage, and examined under a 40× or 100× oil immersion objective under live focus tracking. For RFP, excitation (EX) and emission (EM) filter combinations (maxima/bandwidth in nm) are indicated. Cells were imaged at 12-15 second intervals. Emission intensities of individual cells were background-subtracted before normalization to zero time point, when optogenetic activation began. In the optical setup, optogenetic activation of PhoDer was performed using an EX filter at 440/20 nm for 20-30 ms across whole fields of view. This replicated the progression of endogenous activation of GSDMD observed in LPS-stimulated RAW264.7 cells. […] Where applicable, inhibitors were treated at the indicated concentration for 15 minutes prior to imaging.
Fluctuation Analysis and Quantification. To automate the objective isolation and quantitation of calcium flares, a post-processing algorithm was developed based on principles and normalization scheme detailed in work on photochromic stochastic optical fluctuation imaging (pcSOFI) (Dedecker et al. (2012) Proc. Natl. Acad. Sci. USA 109: 10909-10914). Briefly, fluctuation caused by the flares generate high autocorrelation signals in time-averaged series and yield high contrast at locales of the greatest ion flux. To truly reflect the local flux change, it is then normalized to remove dependence on the number of biosensors reporting at the given location using a scheme detailed previously (Mo et al. (2017) Nat. Methods 14 (4): 427-434). […]

[3] = lipid at 10% in POPE/POPC bilayer
[4] = lipid at 10% in POPE/POPC bilayer vs baseline

Molecule	single pore activity / pore dynamics profile [1]	mean current of pores [1, 3]	dwell time (open duration) of pores [1, 4]	time to observe GSDMD protein-membrane interaction, in words [1]	pore opening/closing dynamics (automated flare quantification) [2]	also measured
cardiolipin [cardiolipin (CL)]	supported a pore dynamics profile similar to that of PIP2					
phosphatidylinositol 4,5-bisphosphate [PIP2]		20 pA	similarly distributed; also recorded: similar	significantly shortened		time to observe protein-membrane interaction [1, 3]: 2.4 ± 0.5 min; effect on open probability of pores [1, 4]: did not affect the open probability; increase in open/close events [1, 4]: 57 fold
phosphatidylinositol triphosphate [PIP3]	kept GSDMD pores predominantly in the open state	20.5 pA	significantly shorter-lived; also recorded: apparently short dwell time	remained as rapid as with PIP2		time to observe GSDMD protein-membrane interaction, in words ([1]; listed as PI(3,4,5)P3 (PIP3)): significantly shortened
diacylglycerol [DAG]	no single pore activity was detected					
B1					significantly reduced pore opening/closing dynamics; also recorded: significant changes in pore activity	
B2					significantly reduced pore opening/closing dynamics; also recorded: significant changes in pore activity	
